{"source": "patent US20080039430A1", "about": "“Pharmaceutical Compositions For The Treatment Of Leishmaniasis” (priority 2004, published 2008)", "key": {"axenic amastigote": {"system": "axenic amastigote", "assay": "YOPRO-1 positive (apoptotic) axenic amastigotes", "type": "cell-based, L. infantum", "experimental": "After 24, 48 and 72 hours of incubation aliquots (10^6 parasites) were collected, washed and incubated for 10 min with 10 μM of YO[…], an apoptotic cell marker (Molecular probes). The mean percentage of YO[…] positive cells was determined as previously described (9)."}, "SIRT1": {"biological_target": "T1, SIRT1 (Homo sapiens, UniProt Q96EB6)", "T1 construct": "purchased MBL, Japan", "T1 sequence (Q96EB6 1-747)": "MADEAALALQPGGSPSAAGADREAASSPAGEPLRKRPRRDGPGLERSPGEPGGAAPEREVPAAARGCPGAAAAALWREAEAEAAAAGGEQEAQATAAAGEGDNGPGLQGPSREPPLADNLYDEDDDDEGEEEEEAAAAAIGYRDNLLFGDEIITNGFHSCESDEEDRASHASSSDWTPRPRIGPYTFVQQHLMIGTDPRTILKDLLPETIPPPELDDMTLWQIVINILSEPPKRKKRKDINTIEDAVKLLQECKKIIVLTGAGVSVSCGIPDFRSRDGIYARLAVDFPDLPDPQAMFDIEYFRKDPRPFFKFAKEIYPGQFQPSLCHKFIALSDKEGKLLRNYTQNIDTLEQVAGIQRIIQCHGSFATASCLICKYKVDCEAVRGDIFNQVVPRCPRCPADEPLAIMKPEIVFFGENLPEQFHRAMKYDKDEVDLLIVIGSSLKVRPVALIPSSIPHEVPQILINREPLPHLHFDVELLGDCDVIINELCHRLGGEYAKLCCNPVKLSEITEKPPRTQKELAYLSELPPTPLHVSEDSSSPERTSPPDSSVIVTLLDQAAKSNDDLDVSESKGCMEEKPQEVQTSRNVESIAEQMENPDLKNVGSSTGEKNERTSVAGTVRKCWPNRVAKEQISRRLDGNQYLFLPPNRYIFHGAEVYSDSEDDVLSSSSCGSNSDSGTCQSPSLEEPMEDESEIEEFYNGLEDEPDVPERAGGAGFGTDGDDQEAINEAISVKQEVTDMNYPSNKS", "assay": "NAD-dependent deacetylase activity, cyclex SIR2 assay kit with SIRT1", "type": "biochemical", "experimental": "Therefore, complementary experiments were conducted in order to examine whether NAm could interfere with Leishmania deacetylase activity in vitro. To test this possibility, a commercially available “[…] SIR2 assay kit” and SIRT1 as a standard enzyme (MBL, Japan) were used."}, "THP-1 monocytes": {"system": "THP-1 monocytes", "assay": "Growth and viability of THP-1 monocytes", "type": "cell-based", "conditions": "3 days", "experimental": "In a first series of experiments, THP-1 monocytes were incubated during 3 days with various concentrations of NAm and the growth and viability of cells were recorded. Up to 10 mM of NAm, no effect on cell growth and viability was observed. In contrast, 20 mM NAm inhibited the proliferation of THP-1 monocyte by about 45% in agreement with the values recorded for other cell types: SupT1 and PBLs cells (6)."}, "LmSIR2": {"biological_target": "T2, LmSIR2 (Leishmania major, UniProt Q25337)", "T2 construct": "expressed in transfected cells; host or cells: Leishmania infantum (MHOM/MA/67/ITMAP-263) carrying pTEX-LmSIR2; NP40 lysate", "T2 sequence (Q25337 whole entry)": "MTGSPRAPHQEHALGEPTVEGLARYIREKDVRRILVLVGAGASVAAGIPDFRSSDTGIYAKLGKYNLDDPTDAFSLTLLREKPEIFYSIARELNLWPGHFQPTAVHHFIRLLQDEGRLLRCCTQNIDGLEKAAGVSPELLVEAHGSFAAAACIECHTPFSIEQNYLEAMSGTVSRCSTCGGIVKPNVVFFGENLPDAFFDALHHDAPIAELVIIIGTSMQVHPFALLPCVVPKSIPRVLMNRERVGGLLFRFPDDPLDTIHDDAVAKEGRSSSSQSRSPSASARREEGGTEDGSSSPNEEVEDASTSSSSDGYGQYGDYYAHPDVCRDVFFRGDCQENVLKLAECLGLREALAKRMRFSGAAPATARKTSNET", "assay": "NAD-dependent deacetylase activity in Leishmania extracts (pTEX-LmSIR2)", "type": "biochemical", "conditions": "5 mM NAm, 200 μM NAD", "experimental": "Having established a standard inhibitory assay, the effect of NAm was then examined on the NAD-dependent deacetylase activity contained in Leishmania extracts from mutant parasites carrying extra copies of LmSIR2 gene (pTEX-LmSIR2) or empty plasmid DNA (pTEX) (11).\nBriefly, 2 10^5 parasites were collected and washed two times with PBS 0.01M pH 7.2 and incubated in a lysis solution (100 mM Tris-HCl, 150 mM NaCl, 1 mM EDTA, 1% NP40, 5 μM Trichostatin A, pH 8.8), cells were then centrifuged for 20 min at 10 000 rpm at 4° C. Deacetylase activity in the presence or absence of 200 μM NAD was measured. Results are expressed as relative F355/F460 counts=F355/F460 counts in the presence of NAD—F355/F460 counts in the absence of NAD. This allowed to discriminate between fluorescence due to the action of LmSIR2 to fluorescence due to the presence of compounds which could interfere with the test."}, "[1]": {"conditions": "patient treated with accelerated radiotherapy for head and Neck cancer; cited from earlier work"}, "intracellular amastigote": {"system": "intracellular amastigote", "assay": "Intracellular amastigote proliferation in THP-1 differentiated macrophages, parasitic index", "type": "cell-based, Leishmania infantum", "conditions": "for IC50: Leishmania infantum, THP-1, read-out: IC50, intracellular growth of Leishmania infantum", "experimental": "Thus, THP-1 differentiated macrophages were infected with stationary phase amastigotes at a host cell-parasite ratio of 5:1. After 4 hours, non adherent parasites were removed and nicotinamide was added to the medium at the appropriate concentration. After 3 days of incubation time, cells were fixed with methanol and stained with giemsa. Parasitic index PI (mean percentage of infected macrophages X number of amastigotes per macrophage) was determined. […] At this concentration a reduction of almost 70% of PI was observed."}, "[2]": {"system": "L. infantum promastigotes", "assay": "Growth of promastigotes in axenic culture, viable parasites by FACs analysis", "type": "cell-based", "experimental": "(§1) The growth of Leishmania amastigotes and promastigotes was followed in axenic culture conditions in the presence or absence of NAm.\n(§2) A cloned line of L. infantum (MHOM/MA/67/ITMAP-263) was used in all experiments. Each subculture was initiated at 5×10^5 parasites/ml of medium. Axenically grown amastigote forms of L. infantum were maintained at 37° C. with 5% CO2 by weekly subpassages in a cell-free medium called MAA/20 (medium for axenically grown amastigotes) in 25-ml flasks, as previously described (10). Promastigote forms were maintained at 26° C. by weekly subpassage in SDM 79 medium supplemented with 10% foetal calf serum (FCS) and 100 units/ml penicillin and 100 μg/ml streptomycin. Nicotinamide (SIGMA, St Louis) was added at the appropriate concentration and the mean number of viable parasites determined using FACs analysis, as previously described (11)."}, "[3]": {"system": "L. infantum axenic amastigotes", "assay": "Growth of axenically grown amastigotes, viable parasites by FACs analysis", "type": "cell-based", "experimental": "as §1, §2"}, "[4]": {"system": "L. amazonsensis amastigotes", "assay": "Growth inhibition of L. amazonsensis amastigotes", "type": "cell-based"}, "[5]": {"system": "L. infantum amastigotes which overexpress LmSIR2", "assay": "NAm-induced death of amastigotes overexpressing LmSIR2", "type": "cell-based", "conditions": "FIGS. 3A and 3B, growth inhibition and YOPRO-1 positive cells", "experimental": "To further examine the possible correlation between the level of SIR2 expression and the sensitivity/resistance to NAm-induced Leishmania amastigotes death, NAm was added to cultures of mutant L. infantum amastigotes which overexpress LmSIR2 or carrying the empty pTEX plasmid as controls."}, "Leishmania parasites": {"system": "Leishmania parasites", "conditions": "compared with NAm"}}, "data": [{"smiles": "NC(=O)c1cccnc1", "note": "[NAm, nicotinamide]", "values": [{"measurement": "leishmanicidal effect, YOPRO-1 positive cells", "setting": "axenic amastigote; 100 mM NAm, after 3 days of culture (FIG. 1C)", "value": "Maximal effect"}, {"measurement": "leishmanicidal activity, occurrence of YOPRO-1 positive cells", "setting": "axenic amastigote; concentrations higher than 25 mM, 24, 48 and 72 hours", "value": "strong dose-dependent leishmanicidal activity"}, {"measurement": "effect on enzymatic (deacetylase) activity of SIRT1", "setting": "SIRT1; 5 mM", "value": "almost completely abrogated"}, {"measurement": "effect on enzymatic (deacetylase) activity of SIRT1", "setting": "SIRT1; 20 mM", "value": "almost completely abrogated"}, {"measurement": "inhibition at 20000 µM", "setting": "THP-1 monocytes; Homo sapiens, THP-1, 72 h, 20 mM NAm, read-out: inhibition of proliferation of THP-1 monocyte", "value": "~45", "unit": "%"}, {"measurement": "effect on cell growth and viability of THP-1 monocytes", "setting": "THP-1 monocytes; up to 10 mM NAm", "value": "no effect"}, {"measurement": "NAD dependent deacetylase activity in parasites overexpressing LmSIR2", "setting": "LmSIR2", "value": "significantly inhibited"}, {"measurement": "plasmatic concentration achievable", "setting": "[1]", "value": "0.7 to 2.3", "unit": "mM"}, {"measurement": "inhibition of intracellular amastigote proliferation", "setting": "intracellular amastigote; 2.5 mM NAm, vs control non treated cultures, p<0.05", "value": "significantly inhibit"}, {"measurement": "reduction of parasitic index (PI)", "setting": "intracellular amastigote; 10 mM NAm, 3 days, THP-1 differentiated macrophages (maximal activity)", "value": "~70", "unit": "%"}, {"measurement": "IC50", "setting": "intracellular amastigote", "value": "< 2500", "unit": "µM"}, {"measurement": "growth of promastigotes", "setting": "[2]; 20 mM NAm", "value": "a delay in the growth"}, {"measurement": "proliferation of promastigotes", "setting": "[2]; FIG. 1A, 10 mM or 20 mM NAm", "value": "strongly inhibited"}, {"measurement": "capacity of axenic amastigotes to proliferate", "setting": "[3]; 20 mM NAm", "value": "virtually completely abrogated"}, {"measurement": "proliferation of amastigotes", "setting": "[3]; FIG. 1B, 10 mM or 20 mM NAm", "value": "strongly inhibited"}, {"measurement": "growth inhibitory activity on L. amazonsensis amastigotes", "setting": "[4]", "value": "sensitive"}, {"measurement": "resistance to NAm-induced death from extra copies of LmSIR2", "setting": "[5]", "value": "did not confer significant resistance"}]}, {"smiles": "O=C(O)c1cccnc1", "note": "[NicotAc, nicotinic acid]", "values": [{"measurement": "growth inhibitory activity towards Leishmania parasites", "setting": "Leishmania parasites", "value": "exerted a growth inhibitory activity towards Leishmania parasites, although at higher concentrations"}, {"measurement": "effect on enzymatic (deacetylase) activity of SIRT1", "setting": "SIRT1; 5 mM", "value": "no significant effect"}, {"measurement": "IC50", "setting": "intracellular amastigote", "value": "< 2500", "unit": "µM"}]}]}
